{"source": "patent US20120184590A1", "about": "“FORMULATIONS OF INDOLE-3-CARBINOL DERIVED ANTITUMOR AGENTS WITH INCREASED ORAL BIOAVAILABILITY” (UNIVERSITY OF KANSAS, priority 2009, published 2012)", "test": "Pharmacokinetics of SR13668 in dogs after i.v. and oral gavage dosing", "type": "in vivo, beagle dogs", "details": "for Fabs F/(1-ER): blood; for bioavailability: beagle (dogs), across all oral groups, dogs and monkeys; for Vd/F: read-out: VZ/F", "from_the_text": "Four non-naïve male beagle dogs (approximately 3 years of age; Ridglan Farms Inc. Mt. Horeb, Wis.) and four non-naïve male cynomolgus monkeys [cynos (macaca fasicularis); approximately 7 to 8 years of age; Charles River Laboratories, Inc., Houston, Tex.] were used in this study. Prior to experimental initiation for the present study, the attending veterinarian certified that the animals were healthy and free from disease and parasites.\nFor both species, each animal was part of each experimental group, with a 7-day interval between treatments to allow for washout of the dosing formulation and its effects. Dosing formulations of SR13668 were administered by oral gavage (intragastric) or intravenous (i.v.) injection as a single dose or once daily for seven consecutive days. Oral to doses were administered at a dosing volume of 5 mL/kg of body weight, while intravenous doses were administered at a dosing volume of 0.5 mL/kg of body weight. Dogs were dosed with 93.6 mg/m^2 SR13668 intravenously in DMSO:PEG300 15:85 (v/v) or orally in Solutol® vehicle (two groups, fed and after an overnight fast). Monkeys were dosed with 84.2 mg/m^2 SR13668 intravenously in DMSO:PEG300 15:85 (v/v) or orally (336.7 mg/m^2 SR13668 for the oral high dose group) in PEG400:Labrasol® 1:1 (v/v) or Solutol® vehicles. Vehicle control groups were used to assess the tolerability of the vehicle and for clinical pathology evaluations.\nBlood samples were collected from each animal at 10 time points (0, 0.25, 0.5, 1, 2, 4, 6, 8, 12 and 24 hours post-dose) during the first and last 24-hour segment of each dosing regimen. For single intravenous dose experiments, samples were collected during the 24-hour post-dose period only. Samples were transferred to Vacutainer tubes containing ethylenediaminetetraacetic acid (EDTA; Fisher Scientific, Pittsburgh, Pa.). The tubes were inverted several times to mix and then placed on ice until storage or centrifugation for plasma preparation. After centrifugation, the plasma was transferred into storage tubes (0.5 mL), which were placed on dry ice and then stored frozen (approximately −70° C.).\nLevels of SR13668 in plasma and blood were measured using a tandem mass to spectrometer (API 3000; Applied Biosystems/MDS Sciex, Foster City, Calif.) equipped with a high performance liquid chromatograph (Agilent 1200; Agilent Technologies, Wilmington, Del.). For SR13668 determination, a 100 μL blood or plasma aliquot was mixed with 1 mL of acetonitrile (ACN; Sigma-Aldrich, St. Louis, Mo.). After vortex-mixing for one minute, the sample was centrifuged at 4° C. and 7000 RPM for 10 minutes to remove precipitated proteins, and the supernatant was transferred to a clean tube and dried under nitrogen flow at room temperature (approximately 25° C.). After the evaporation was completed, the residue was reconstituted in 500 μL of ACN/water (v/v 70:30), and vortex-mixed and centrifuged again. An aliquot of the resulting supernatant was transferred to an autosampler tube for instrumental analysis.\nA freshly prepared SR13668 standard curve was analyzed along with samples on each day of analysis. The chromatographic column was a Luna 3μ C18(2) 110 Å 30×2.0 mm (Phenomenex, Torrance, Calif.). The column temperature was maintained at 25° C., and a flow rate of 0.30 mL/min was used. The mobile phase consisted of MPA: formic acid in water (0.05%, v/v) and MPB: formic acid in ACN (0.05%, v/v). The mobile phase gradient was as follows: after injection, initial conditions with MPA at 40% were held for 0.01 min, decreased to 5% and held constant for 3 min, returning to initial conditions for another 3 min of re-equilibration time. Retention time of SR13668 was approximately 2.4 min. Total run time was 6 min. A turbo ion spray interface was used as the ion source operating in negative ion mode. Acquisition was performed in multiple reaction monitoring mode using ions 429.15 (Q1) and 414.12 (Q3) Dalton. […]", "key": {"[1]": {"details": "dogs, whole blood, 93.6 mg/m^2 (4.68 mg/kg) iv single dose, DMSO:PEG300 15:85 v/v, fed"}, "[2]": {"details": "male, beagle, dog, plasma, iv, 4.68 mg/kg, dogs, plasma, 93.6 mg/m^2 (4.68 mg/kg) i.v. single dose, DMSO:PEG300 15:85 v/v, fed"}, "[3]": {"details": "male, beagle, dog, plasma, po, 4.68 mg/kg, dogs, 93.6 mg/m^2 (4.68 mg/kg) oral gavage, Solutol, seventh daily dose, fasted"}, "[4]": {"details": "male, beagle, dog, plasma, po, 4.68 mg/kg, dogs, 93.6 mg/m^2 (4.68 mg/kg) oral gavage, Solutol, seventh daily dose, fed"}, "[5]": {"details": "male, beagle, dog, whole blood, iv, 4.68 mg/kg, dogs, whole blood, 93.6 mg/m^2 (4.68 mg/kg) iv single dose, DMSO:PEG300 15:85 v/v, fed"}, "[6]": {"details": "male, beagle, dog, whole blood, po, 4.68 mg/kg, dogs, 93.6 mg/m^2 (4.68 mg/kg) oral gavage, Solutol, seventh daily dose, fasted"}, "[7]": {"details": "male, beagle, dog, whole blood, po, 4.68 mg/kg, dogs, 93.6 mg/m^2 (4.68 mg/kg) oral gavage, Solutol, seventh daily dose, fed"}}, "note": "Values joined by “and” are separate entries in the source; they are usually repeats but may differ in a detail not shown here. Equal values may be shown once. Read-outs that look alike come from different tables or passages of the source. Marks after values point to notes of the source that are not given here.", "data": [{"smiles": "CCOC(=O)c1ccc2[nH]c3c(OC)c4[nH]c5ccc(C(=O)OCC)cc5c4cc3c2c1", "note": "[SR13668, 2,10-dicarbethoxy-6-methoxy-5,7-dihydro-indolo-(2,3-b)carbazole]", "values": [{"measurement": "CL", "setting": "dogs, blood clearance, 93.6 mg/m^2 (4.68 mg/kg) oral gavage, Solutol, fasted", "value": 30.0, "unit": "mL/min/kg"}, {"measurement": "CL", "setting": "dogs, blood clearance, 93.6 mg/m^2 (4.68 mg/kg) oral gavage, Solutol, fed", "value": 25.7, "unit": "mL/min/kg"}, {"measurement": "Fabs F/(1-ER)", "setting": "dogs, 93.6 mg/m^2 (4.68 mg/kg) oral gavage, Solutol, fasted", "value": 16.5, "unit": "%"}, {"measurement": "Fabs F/(1-ER)", "setting": "dogs, 93.6 mg/m^2 (4.68 mg/kg) oral gavage, Solutol, fed", "value": 20.0, "unit": "%"}, {"measurement": "F0-∞", "setting": "dogs, plasma, 93.6 mg/m^2 (4.68 mg/kg) i.v. single dose, DMSO:PEG300 15:85 v/v, fed", "value": 100, "unit": "%"}, {"measurement": "F0-∞", "setting": "dogs, plasma, 93.6 mg/m^2 (4.68 mg/kg) oral gavage, Solutol, seventh daily dose, fasted", "value": "13.3 ± 4.0", "unit": "%"}, {"measurement": "CL/F", "setting": "[1]", "value": "0.244 ± 0.034^a,h L/hr/kg"}, {"measurement": "F0-∞", "setting": "[1]", "value": 100, "unit": "%"}, {"measurement": "F0-∞", "setting": "dogs, whole blood, 93.6 mg/m^2 (4.68 mg/kg) oral gavage, Solutol, seventh daily dose, fasted", "value": "14.2 ± 4.5% and 14.2%"}, {"measurement": "F0-∞", "setting": "dogs, whole blood, 93.6 mg/m^2 (4.68 mg/kg) oral gavage, Solutol, seventh daily dose, fed", "value": "17.2 ± 4.3^h,i % and 17.2%"}, {"measurement": "ER CLiv/Q", "setting": "dogs, iv blood clearance over hepatic blood flow 30.9 mL/min/kg", "value": 0.14}, {"measurement": "effect of fed or fasted condition on bioavailability", "setting": "dogs, oral gavage, Solutol", "value": "did not have an effect"}, {"measurement": "bioavailability", "setting": "male, dog, plasma, read-out: plasma oral bioavailability, range", "value": "0.7 to 14.6", "unit": "%"}, {"measurement": "bioavailability", "setting": "male, dog, whole blood, read-out: blood oral bioavailability, range", "value": "1.1 to 17.2", "unit": "%"}, {"measurement": "AUC(0-inf)", "setting": "[2]", "value": "8400 ± 1190", "unit": "ng·h/mL"}, {"measurement": "Cmax", "setting": "[2]", "value": "2360 ± 573", "unit": "ng/mL"}, {"measurement": "MRT", "setting": "[2]", "value": "6.3 ± 0.6", "unit": "h"}, {"measurement": "Tmax", "setting": "[2]", "value": 0.25, "unit": "h"}, {"measurement": "half-life", "setting": "[2]", "value": "5 ± 0.2", "unit": "h"}, {"measurement": "CL/F", "setting": "male, beagle, dog, plasma, po, 4.68 mg/kg, dogs, plasma, 93.6 mg/m^2 (4.68 mg/kg) oral gavage, Solutol, seventh daily dose, fasted, read-out: CL/F (converted)", "value": 76.3, "unit": "mL/min/kg"}, {"measurement": "Vd/F", "setting": "male, beagle, dog, plasma, po, 4.68 mg/kg, dogs, plasma, 93.6 mg/m^2 (4.68 mg/kg) oral gavage, Solutol, seventh daily dose, fasted", "value": "64 ± 24", "unit": "L/kg"}, {"measurement": "CL/F", "setting": "male, beagle, dog, plasma, po, 4.68 mg/kg, dogs, plasma, 93.6 mg/m^2 (4.68 mg/kg) oral gavage, Solutol, seventh daily dose, fed, read-out: CL/F (converted)", "value": 69.7, "unit": "mL/min/kg"}, {"measurement": "Vd/F", "setting": "male, beagle, dog, plasma, po, 4.68 mg/kg, dogs, plasma, 93.6 mg/m^2 (4.68 mg/kg) oral gavage, Solutol, seventh daily dose, fed", "value": "32.4 ± 9.6", "unit": "L/kg"}, {"measurement": "AUC(0-inf)", "setting": "[3]", "value": "1100 ± 339", "unit": "ng·h/mL"}, {"measurement": "Cmax", "setting": "[3]", "value": "113 ± 58", "unit": "ng/mL"}, {"measurement": "MRT", "setting": "[3]", "value": "12.8 ± 4.2", "unit": "h"}, {"measurement": "Tmax", "setting": "[3]", "value": "2.8 ± 1.5", "unit": "h"}, {"measurement": "half-life", "setting": "[3]", "value": "9.7 ± 2.4", "unit": "h"}, {"measurement": "AUC(0-inf)", "setting": "[4]", "value": "1240 ± 414", "unit": "ng·h/mL"}, {"measurement": "Cmax", "setting": "[4]", "value": "207 ± 48", "unit": "ng/mL"}, {"measurement": "MRT", "setting": "[4]", "value": "7.1 ± 1.1", "unit": "h"}, {"measurement": "Tmax", "setting": "[4]", "value": "1.8 ± 0.5", "unit": "h"}, {"measurement": "half-life", "setting": "[4]", "value": "5.6 ± 1.4", "unit": "h"}, {"measurement": "AUC(0-inf)", "setting": "[5]", "value": "19500 ± 3160", "unit": "ng·h/mL"}, {"measurement": "Cmax", "setting": "[5]", "value": "5220 ± 742", "unit": "ng/mL"}, {"measurement": "MRT", "setting": "[5]", "value": "6.7 ± 0.6", "unit": "h"}, {"measurement": "Tmax", "setting": "[5]", "value": 0.25, "unit": "h"}, {"measurement": "half-life", "setting": "[5]", "value": "5 ± 0.1", "unit": "h"}, {"measurement": "CL/F", "setting": "male, beagle, dog, whole blood, po, 4.68 mg/kg, dogs, whole blood, 93.6 mg/m^2 (4.68 mg/kg) oral gavage, Solutol, seventh daily dose, fasted, read-out: CL/F (converted)", "value": 30, "unit": "mL/min/kg"}, {"measurement": "Vd/F", "setting": "male, beagle, dog, whole blood, po, 4.68 mg/kg, dogs, whole blood, 93.6 mg/m^2 (4.68 mg/kg) oral gavage, Solutol, seventh daily dose, fasted", "value": "18.6 ± 7.5", "unit": "L/kg"}, {"measurement": "CL/F", "setting": "male, beagle, dog, whole blood, po, 4.68 mg/kg, dogs, whole blood, 93.6 mg/m^2 (4.68 mg/kg) oral gavage, Solutol, seventh daily dose, fed, read-out: CL/F (converted)", "value": 25.7, "unit": "mL/min/kg"}, {"measurement": "Vd/F", "setting": "male, beagle, dog, whole blood, po, 4.68 mg/kg, dogs, whole blood, 93.6 mg/m^2 (4.68 mg/kg) oral gavage, Solutol, seventh daily dose, fed", "value": "12.8 ± 4.8", "unit": "L/kg"}, {"measurement": "AUC(0-inf)", "setting": "[6]", "value": "2680 ± 577", "unit": "ng·h/mL"}, {"measurement": "Cmax", "setting": "[6]", "value": "277 ± 87", "unit": "ng/mL"}, {"measurement": "MRT", "setting": "[6]", "value": "10.9 ± 3.1", "unit": "h"}, {"measurement": "Tmax", "setting": "[6]", "value": "2.8 ± 1.5", "unit": "h"}, {"measurement": "half-life", "setting": "[6]", "value": "7 ± 1.8", "unit": "h"}, {"measurement": "AUC(0-inf)", "setting": "[7]", "value": "3410 ± 1290", "unit": "ng·h/mL"}, {"measurement": "Cmax", "setting": "[7]", "value": "575 ± 152", "unit": "ng/mL"}, {"measurement": "MRT", "setting": "[7]", "value": "7.2 ± 0.9", "unit": "h"}, {"measurement": "Tmax", "setting": "[7]", "value": "1.8 ± 0.5", "unit": "h"}, {"measurement": "half-life", "setting": "[7]", "value": "5.9 ± 1.5", "unit": "h"}, {"measurement": "clearance", "setting": "male, beagle, dog, whole blood, dogs, blood clearance, 93.6 mg/m^2 (4.68 mg/kg) iv, DMSO:PEG300 15:85 v/v, fed", "value": 4.07, "unit": "mL/min/kg"}]}]}
